What all share (format): cell-based
In data set [1] the test system is human acute myelocytic leukemia MV4; 11 cells. Kind of data set: Growth inhibition test on human acute myelocytic leukemia MV4; 11 cells (WST-1, % viability). The following applies: test compound 10 μmol/L, cells without test compound = 100%. Here is the method: (§1) Ten thousand cells of human acute myelocytic leukemia MV4; 11 were inoculated into each well of a 96-well microplate (manufactured by Nunc Corp.), and using IMDM medium (culture medium) containing 10% FCS, preculturing was performed in a 5% carbon dioxide incubator at 37° C. for 24 hours. A DMSO solution of each test compound prepared in a concentration of 10 mmol/L was diluted with the culture medium to a final concentration of 10 μmol/L, and the diluted solution was added to each well. The individual wells were further cultured in the 5% carbon dioxide incubator at 37° C. for 72 hours. After completion of the culturing, 10 μL of WST-1 labeled mixture (manufactured by Roche Diagnostic Corp.) was added to each well, and culturing was performed in the 5% carbon dioxide incubator at 37° C. for 1 hour. Using a microplate spectrophotometer (SpectraMax 340PC384; manufactured by Nihon Molecular Devices), the absorbance of each well was measured at 450 nm and 655 nm. The value obtained by subtracting the absorbance at 450 nm from the absorbance at 655 nm (absorbance difference) was calculated for each well. The value for cells not incorporated with a test compound was designated as 100%, and the value at a well not containing cells was designated as 0%. By comparing these values with the absorbance difference obtained at the well in which each test compound was added, the cell viability (% viability) after treatment with the test compound was calculated.

Data set [2] has as its system human T-cell lymphoma Karpas-299 cells. Kind of data set: Growth inhibition test on human T-cell lymphoma Karpas-299 cells (WST-1, % viability). The following applies: test compound 10 μmol/L, 72 hours, cells without test compound = 100%. The procedure:
as §1, with “Five” for “Ten”, “T-cell lymphoma Karpas-299” for “acute myelocytic leukemia MV4; 11”, “RPMI” for “IMDM”, “5” for “24”, “2 hours.” for “1 hour.”

Data set [3] deals with human chronic myelocytic leukemia K562 cells. Description: Growth inhibition test on human chronic myelocytic leukemia K562 cells (WST-1, % viability). The following applies: test compound 10 μmol/L, 72 hours, cells without test compound = 100%. Here is the method:
One thousand cells of human chronic myelocytic leukemia K562 were inoculated into each well of a 96-well microplate (manufactured by Nunc Corp.), and using RPMI1640 medium (culture medium) containing 10% fetal calf serum (FCS), preculturing was performed in a 5% carbon dioxide incubator at 37° C. for 24 hours. A dimethyl sulfoxide (DMSO) solution of each test compound prepared in a concentration of 10 mmol/L was diluted with the culture medium to a final concentration of 10 μmol/L, and the diluted solution was added to each well. The individual wells were further cultured in the 5% carbon dioxide incubator at 37° C. for 72 hours. After completion of the culturing, 10 μL of WST-1 {4-[3-(4-Iodophenyl)-2-(4-nitrophenyl)-2H-5-tetrazolio]-1,3-benzene disulfonate} labeled mixture (manufactured by Roche Diagnostic Corp.) was added to each well, and culturing was performed in the 5% carbon dioxide incubator at 37° C. for 2 hours. Using a microplate spectrophotometer (SpectraMax 340PC384; manufactured by Nihon Molecular Devices), the absorbance of each well was measured at 450 nm and 655 nm. The value obtained by subtracting the absorbance at 450 nm from the absorbance at 655 nm (absorbance difference) was calculated for each well. The value for cells not incorporated with a test compound was designated as 100%, and the value at a well not containing cells was designated as 0%. By comparing these values with the absorbance difference obtained at the well in which each test compound was added, the cell viability (% viability) after treatment with the test compound was calculated.

Data set [4] deals with human mammary cancer BT-474 cells. Kind of data set: Growth inhibition test on human mammary cancer BT-474 cells (WST-1, % viability). The following applies: test compound 10 μmol/L, cells without test compound = 100%. The procedure: as §1, with “Four” for “Ten”, “mammary cancer BT-474” for “acute myelocytic leukemia MV4; 11”, “Dulbecco's Modified Eagle's Medium (DMEM)” for “IMDM medium”, “2 hours.” for “1 hour.”

The structures appear in SMILES notation.

In the case of `CCc1c(O)cc(O)c(C(=O)c2ccc(SC)cc2)c1CC(=O)N(CCO)CCOC` [Compound 95], the “Viability of tumor cells (% viability), Human acute myelocytic leukemia MV4; 11 cells” value in data set [1] came to 0%. The “Viability of tumor cells (% viability), Human T-cell lymphoma Karpas-299 cells” value in data set [2] was determined as 15%. In data set [3], the “Viability of tumor cells (% viability), Human chronic myelocytic leukemia K562 cells” value is on record as 4%. Moreover, in data set [4], the “Viability of tumor cells (% viability), Human mammary cancer BT-474 cells” value was 13%.
In the same order, the values of `CCc1c(O)cc(O)c(C(=O)c2ccc(OC(F)F)cc2)c1CC(=O)N(CCO)CCOC` [Compound 91] are 0%, 16%, 4% and 13%.
In the same order, the values of `CCc1c(O)cc(O)c(C(=O)c2ccc(OC)cc2)c1CC(=O)N1CCN(c2ncccn2)CC1` [Compound 32] are 0%, 15%, 4% and 13%.
Consider `CCc1c(O)cc(O)c(C(=O)c2ccc(OC(F)(F)F)cc2)c1CC(=O)N(CCO)CCOC` [Compound 88], for which the “Viability of tumor cells (% viability), Human acute myelocytic leukemia MV4; 11 cells” value in data set [1] is listed as 0%. Besides, in data set [2], the “Viability of tumor cells (% viability), Human T-cell lymphoma Karpas-299 cells” value is listed as 16%. Besides, the “Viability of tumor cells (% viability), Human chronic myelocytic leukemia K562 cells” value in data set [3] came out at 4%. In data set [4], the “Viability of tumor cells (% viability), Human mammary cancer BT-474 cells” value is reported as 13%.
In the same order, the values of `CCc1c(O)cc(O)c(C(=O)c2ccc(OC)c(OC)c2)c1CC(=O)N1CCN(c2ccccc2)CC1` [Compound 41] are 0%, 19%, 4% and 14%.
As to `CCc1c(O)cc(O)c(C(=O)c2ccc(OC(C)C)cc2)c1CC(=O)N(CCOC)CCN1CCOCC1` [Compound 134], the “Viability of tumor cells (% viability), Human acute myelocytic leukemia MV4; 11 cells” value in data set [1] is reported as 0%. Further, the “Viability of tumor cells (% viability), Human T-cell lymphoma Karpas-299 cells” value in data set [2] came to 16%. Moreover, the “Viability of tumor cells (% viability), Human chronic myelocytic leukemia K562 cells” value in data set [3] is on record as 4%. Further, the “Viability of tumor cells (% viability), Human mammary cancer BT-474 cells” value in data set [4] is 13%.
In the case of `CCc1c(O)cc(O)c(C(=O)c2ccc(OC)cc2)c1CC(=O)N(C)Cc1cccnc1` [Compound 16], the “Viability of tumor cells (% viability), Human acute myelocytic leukemia MV4; 11 cells” value in data set [1] amounted to 0%. For the same compound, the “Viability of tumor cells (% viability), Human T-cell lymphoma Karpas-299 cells” value in data set [2] was determined as 13%. The “Viability of tumor cells (% viability), Human chronic myelocytic leukemia K562 cells” value in data set [3] came out at 4%. In addition, the “Viability of tumor cells (% viability), Human mammary cancer BT-474 cells” value in data set [4] amounted to 12%.
For `CCc1c(O)cc(O)c(C(=O)c2ccc(OC)cc2)c1CC(=O)N(CCO)CCOC` [Compound 33], the “Viability of tumor cells (% viability), Human acute myelocytic leukemia MV4; 11 cells” value in data set [1] amounted to 0%. Moreover, the “Viability of tumor cells (% viability), Human T-cell lymphoma Karpas-299 cells” value in data set [2] turned out to be 14%. Also, the “Viability of tumor cells (% viability), Human chronic myelocytic leukemia K562 cells” value in data set [3] is recorded as 4%. Also, the “Viability of tumor cells (% viability), Human mammary cancer BT-474 cells” value in data set [4] stood at 13%.
On the same counts, the results for `CCc1c(O)cc(O)c(C(=O)c2ccc(OC)cc2)c1CC(=O)N1CCc2cc(OC)c(OC)cc2C1` [Compound 38] are 0%, 14%, 4% and 13%.
For the compound `CCc1c(O)cc(O)c(C(=O)c2ccc(OC)cc2)c1CC(=O)N1CCC(CO)CC1` [Compound 61], in data set [1], the “Viability of tumor cells (% viability), Human acute myelocytic leukemia MV4; 11 cells” value is recorded as 0%. The “Viability of tumor cells (% viability), Human T-cell lymphoma Karpas-299 cells” value in data set [2] is on record as 13%. Also, in data set [3], the “Viability of tumor cells (% viability), Human chronic myelocytic leukemia K562 cells” value is listed as 5%. Besides, in data set [4], the “Viability of tumor cells (% viability), Human mammary cancer BT-474 cells” value was 12%.
In the same order, the values of `CCc1c(O)cc(O)c(C(=O)c2ccc(S(C)(=O)=O)cc2)c1CC(=O)N(CCOC)CCOC` [Compound 107] are 0%, 14%, 5% and 13%.
In the same order, the values of `CCc1c(O)cc(O)c(C(=O)c2ccc(OCCCN3CCOCC3)c(OC)c2)c1CC(=O)N(CCOC)CCOC` [Compound 149] are 0%, 14%, 4% and 14%.
In the same order, the values of `CCOc1ccc(C(=O)c2c(O)cc(O)c(CC)c2CC(=O)N(CCO)CCOC)cc1` [Compound 122] are 0%, 12%, 4% and 12%.
For `CCc1c(O)cc(O)c(C(=O)c2ccc(OC)cc2)c1CC(=O)N1CCN(c2ccccc2C#N)CC1` [Compound 17], the “Viability of tumor cells (% viability), Human acute myelocytic leukemia MV4; 11 cells” value in data set [1] is listed as 0%. In addition, the “Viability of tumor cells (% viability), Human T-cell lymphoma Karpas-299 cells” value in data set [2] is 16%. Further, the “Viability of tumor cells (% viability), Human chronic myelocytic leukemia K562 cells” value in data set [3] is 4%. Besides, in data set [4], the “Viability of tumor cells (% viability), Human mammary cancer BT-474 cells” value is reported as 10%.
On the same counts, the results for `CCc1c(O)cc(O)c(C(=O)c2ccc(OCCN3CCOCC3)c(OC)c2)c1CC(=O)N(CCOC)CCOC` [Compound 125] are 0%, 15%, 4% and 14%.

Values taken from US20090042883A1, “ANTITUMOR AGENT” (KYOWA HAKKOKOGYO CO., priority 2005, published 2009).
